Experimental data taken from patent US10189838B2, “Aza-oxo-indoles for the treatment and prophylaxis of respiratory syncytial virus infection” (Hoffmann-La Roche Inc., priority 2013, dated 2019).

The compounds below were run on RSV Long strain (assay: Viral cytopathic effect (CPE) assay, RSV Long strain). Settings: human respiratory syncytial virus, 144 h, cell viability after 6 days (Cell Counting kit-8).
Format: cell-based, Respiratory Syncytial Virus
Procedure: EC50: the concentration of a compound where 50% of its maximal protection effect against viral induced CPE is observed
LongStrain: an A subtype RSV strain obtained from ATCC with catalog number VR-26
To measure anti-RSV activity of compounds, 96-well plates are seeded with 6×10^3 cells per well in Dulbecco's modified Eagle's medium (DMEM) containing 10% fetal bovine serum (FBS). Cells are infected the next day with sufficient RSV Long strain (ATCC) to produce an approximately 80-90% cytopathic effect after 6 days, in the presence of serial half-log diluted compound in a total volume of […] per well. The viability of cells is assessed after 6 days using Cell Counting kit-8 (Dojindo Molecular Technologies). The absorbance at 450 nm and referenced at 630 nm is measured to determine 50% effective concentration (EC50)

Structure (SMILES)	EC50 [nM]
CS(=O)(=O)CCn1c(CN2C(=O)C3(CC3)c3cc(F)ccc32)cc2cc(Cl)cnc21 [Example 2-7, 1′-({5-Chloro-1-[2-(methylsulfonyl)ethyl]-1H-pyrrolo[2,3-b]pyridin-2-yl}methyl)-5′-fluorospiro[cyclopropane-1,3′-indol]-2′(1′H)-one]	750
CS(=O)(=O)CCCCn1c(CN2C(=O)C3(CC3)c3ccncc32)cc2cc(Cl)ncc21 [Example 4-7, 1′-({5-Chloro-1-[4-(methylsulfonyl)butyl]-1H-pyrrolo[2,3-c]pyridin-2-yl}methyl)spiro[cyclopropane-1,3′-pyrrolo[2,3-c]pyridin]-2′(1′H)-one]	27
O=C1N(Cc2cc3nc(Cl)ccc3n2CCS(=O)(=O)C2CC2)c2cnccc2C12CC2 [Example 4-14, 1′-({5-Chloro-1-[2-(cyclopropylsulfonyl)ethyl]-1H-pyrrolo[3,2-b]pyridin-2-yl}methyl)spiro[cyclopropane-1,3′-pyrrolo[2,3-c]pyridin]-2′(1′H)-one]	72
O=C1N(Cc2nc3cc(Cl)ccc3n2CCC2CS(=O)(=O)C2)c2cnccc2C12CC2 [Example 35, 1′-({5-Chloro-1-[2-(1,1-dioxidothietan-3-yl)ethyl]-1H-benzimidazol-2-yl}methyl)spiro[cyclopropane-1,3′-pyrrolo[2,3-c]pyridin]-2′(1′H)-one]	1.1
CS(=O)(=O)CCn1c(CN2C(=O)C3(CC3)c3ccncc32)cc2cc(F)ccc21 [Example 1-4, 1′-({5-Fluoro-1-[2-(methylsulfonyl)ethyl]-1H-indol-2-yl}methyl)spiro[cyclopropane-1,3′-pyrrolo[2,3-c]pyridin]-2′(1′H)-one]	189
O=C1N(Cc2cc3cc(Cl)ccc3n2CCCS(=O)(=O)N2CCNCC2)c2cnccc2C12CC2 [Example 24-2, 1′-({5-Chloro-1-[3-(piperazin-1-ylsulfonyl)propyl]-1H-indol-2-yl}methyl)spiro[cyclopropane-1,3′-pyrrolo[2,3-c]pyridin]-2′(1′H)-one]	15
CN(C)S(=O)(=O)CCCn1c(CN2C(=O)C3(CC3)c3ccncc32)cc2cc(Cl)ccc21 [Example 7-1, 3-{5-Chloro-2-[(2′-oxospiro[cyclopropane-1,3′-pyrrolo[2,3-c]pyridin]-1′(2′H)-yl)methyl]-1H-indol-1-yl}-N,N-dimethylpropane-1-sulfonamide]	7
O=C1N(Cc2nc3cc(Cl)ccc3n2CCS(=O)(=O)C2CC2)c2cnccc2C12CC2 [Example 36-2, 1′-({5-Chloro-1-[2-(cyclopropylsulfonyl)ethyl]-1H-benzimidazol-2-yl}methyl)spiro[cyclopropane-1,3′-pyrrolo[2,3-c]pyridin]-2′(1′H)-one]	8
CS(=O)(=O)CCn1c(CN2C(=O)C3(CC3)c3cccnc32)cc2cc(Cl)ccc21 [Example 2-5, 1′-({5-Chloro-1-[2-(methylsulfonyl)ethyl]-1H-indol-2-yl}methyl)spiro[cyclopropane-1,3′-pyrrolo[2,3-b]pyridin]-2′(1′H)-one]	169
COc1ccc2c(c1)cc(CN1C(=O)C3(CC3)c3ccncc31)n2CCS(C)(=O)=O [Example 1-2, 1′-({5-Methoxy-1-[2-(methylsulfonyl)ethyl]-1H-indol-2-yl}methyl)spiro[cyclopropane-1,3′-pyrrolo[2,3-c]pyridin]-2′(1′H)-one]	74
CS(=O)(=O)CCn1c(CN2C(=O)C3(CC3)c3ccncc32)nc2cc(Cl)cc(Cl)c21 [Example 37-2, 1′-({5,7-Dichloro-1-[2-(methylsulfonyl)ethyl]-1H-benzimidazol-2-yl}methyl)spiro[cyclopropane-1,3′-pyrrolo[2,3-c]pyridin]-2′(1′H)-one]	16.8
CS(=O)(=O)CCn1c(CN2C(=O)C3(CCCC3)c3ccncc32)cc2cc(Cl)cnc21 [Example 2-8, 1′-({5-Chloro-1-[2-(methylsulfonyl)ethyl]-1H-pyrrolo[2,3-b]pyridin-2-yl}methyl)spiro[cyclopentane-1,3′-pyrrolo[2,3-c]pyridin]-2′(1′H)-one]	919
CS(=O)(=O)CCCn1c(CN2C(=O)C3(CC3)c3cccnc32)cc2cc(Cl)ccc21 [Example 22-2, 1′-({5-Chloro-1-[3-(methylsulfonyl)propyl]-1H-indol-2-yl}methyl)spiro[cyclopropane-1,3′-pyrrolo[2,3-b]pyridin]-2′(1′H)-one]	88
CS(=O)(=O)CCn1c(CN2C(=O)C3(CCCC3)c3ccncc32)cc2cc(Cl)ccc21 [Example 3-2, 1′-({5-Chloro-1-[2-(methylsulfonyl)ethyl]-1H-indol-2-yl}methyl)spiro[cyclopentane-1,3′-pyrrolo[2,3-c]pyridin]-2′(1′H)-one]	290
O=C1N(Cc2cc3cc(Cl)ccc3n2CCCCN2CCCS2(=O)=O)c2cnccc2C12CC2 [Example 7-8, 1′-({5-Chloro-1-[4-(1,1-dioxido-1,2-thiazolidin-2-yl)butyl]-1H-indol-2-yl}methyl)spiro[cyclopropane-1,3′-pyrrolo[2,3-c]pyridin]-2′(1′H)-one]	18
CN(C(=O)CCn1c(CN2C(=O)C3(CC3)c3ccncc32)cc2cc(Cl)ccc21)S(C)(=O)=O [Example 19-3, 3-{5-Chloro-2-[(2′-oxospiro[cyclopropane-1,3′-pyrrolo[2,3-c]pyridin]-1′(2′H)-yl)methyl]-1H-indol-1-yl}-N-methyl-N-(methylsulfonyl)propanamide]	47
O=C1N(Cc2cc3cc(Cl)ccc3n2CCN2CCCS2(=O)=O)c2cnccc2C12CC2 [Example 7-7, 1′-({5-Chloro-1-[2-(1,1-dioxido-1,2-thiazolidin-2-yl)ethyl]-1H-indol-2-yl}methyl)spiro[cyclopropane-1,3′-pyrrolo[2,3-c]pyridin]-2′(1′H)-one]	35
CCS(=O)(=O)CCn1c(CN2C(=O)C3(CC3)c3ccncc32)cc2cc(Cl)cnc21 [Example 2-2, 1′-({5-Chloro-1-[2-(ethylsulfonyl)ethyl]-1H-pyrrolo[2,3-b]pyridin-2-yl}methyl)spiro[cyclopropane-1,3′-pyrrolo[2,3-c]pyridin]-2′(1′H)-one]	19
CC(=O)NS(=O)(=O)CCCn1c(CN2C(=O)C3(CC3)c3ccncc32)cc2cc(Cl)cnc21 [Example 26-2, N-[(3-{5-Chloro-2-[(2′-oxospiro[cyclopropane-1,3′-pyrrolo[2,3-c]pyridin]-1′(2′H)-yl)methyl]-1H-pyrrolo[2,3-b]pyridin-1-yl}propyl)sulfonyl]acetamide]	1920
CS(=O)(=O)CCn1c(CN2C(=O)C3(CC3)c3ccncc32)cc2cccc(Cl)c21 [Example 1-7, 1′-({7-Chloro-1-[2-(methylsulfonyl)ethyl]-1H-indol-2-yl}methyl)spiro[cyclopropane-1,3′-pyrrolo[2,3-c]pyridin]-2′(1′H)-one]	164
CS(=O)(=O)CCCn1c(CN2C(=O)C3(CC3)c3ccncc32)cc2cc(Cl)ncc21 [Example 4-13, 1′-({5-Chloro-1-[3-(methylsulfonyl)propyl]-1H-pyrrolo[2,3-c]pyridin-2-yl}methyl)spiro[cyclopropane-1,3′-pyrrolo[2,3-c]pyridin]-2′(1′H)-one]	26
O=C1CNCCN1CCCn1c(CN2C(=O)C3(CC3)c3ccncc32)cc2cc(Cl)ccc21 [Example 24-4, 1′-({5-Chloro-1-[3-(2-oxopiperazin-1-yl)propyl]-1H-indol-2-yl}methyl)spiro[cyclopropane-1,3′-pyrrolo[2,3-c]pyridin]-2′(1′H)-one]	30
CC(=O)N1CCN(CCn2c(CN3C(=O)C4(CC4)c4ccncc43)cc3cc(Cl)ccc32)CC1 [Example 26-1, 1′-({1-[2-(4-Acetylpiperazin-1-yl)ethyl]-5-chloro-1H-indol-2-yl}methyl)spiro[cyclopropane-1,3′-pyrrolo[2,3-c]pyridin]-2′(1′H)-one]	25
O=C1N(Cc2cc3cc(Cl)ccc3n2CCN2CCNCC2)c2cnccc2C12CC2 [Example 24-1, 1′-({5-Chloro-1-[2-(piperazin-1-yl)ethyl]-1H-indol-2-yl}methyl)spiro[cyclopropane-1,3′-pyrrolo[2,3-c]pyridin]-2′(1′H)-one]	68
CS(=N)(=O)CCn1c(CN2C(=O)C3(CC3)c3ccncc32)cc2cc(Cl)cnc21 (centres unmarked) [Example 14-4, 1′-({5-Chloro-1-[2-(S-methylsulfonimidoyl)ethyl]-1H-pyrrolo[2,3-b]pyridin-2-yl}methyl)spiro[cyclopropane-1,3′-pyrrolo[2,3-c]pyridin]-2′(1′H)-one]	172
CC(=O)N=S(C)(=O)CCn1c(CN2C(=O)C3(CC3)c3ccncc32)cc2cc(Cl)ccc21 (centres unmarked) [Example 15, N-[(2-{5-Chloro-2-[(2′-oxospiro[cyclopropane-1,3′-pyrrolo[2,3-c]pyridin]-1′(2′H)-yl)methyl]-1H-indol-1-yl}ethyl)(methyl)oxido-λ^6-sulfanylidene]acetamide]	25
NC(=O)CCn1c(CN2C(=O)C3(CC3)c3cccnc32)cc2cc(Cl)ccc21 [Example 18-2, 3-{5-Chloro-2-[(2′-oxospiro[cyclopropane-1,3′-pyrrolo[2,3-b]pyridin]-1′(2′H)-yl)methyl]-1H-indol-1-yl}propanamide]	711
NC(=O)CCCn1c(CN2C(=O)C3(CC3)c3ccncc32)cc2cc(Cl)ccc21 [Example 18-3, 4-{5-Chloro-2-[(2′-oxospiro[cyclopropane-1,3′-pyrrolo[2,3-c]pyridin]-1′(2′H)-yl)methyl]-1H-indol-1-yl}butanamide]	11
CNS(=O)(=O)CCCn1c(CN2C(=O)C3(CC3)c3ccncc32)cc2cc(Cl)cnc21 [Example 25-1, 3-{5-Chloro-2-[(2′-oxospiro[cyclopropane-1,3′-pyrrolo[2,3-c]pyridin]-1′(2′H)-yl)methyl]-1H-pyrrolo[2,3-b]pyridin-1-yl}-N-methylpropane-1-sulfonamide]	57
